≈ marks a conversion by molar mass, not a printed value. Read-outs that look alike come from different tables or passages of the source.
What was measured:
[1] = system: MRSA; assay: MIC and MBC determinations in vitro, MRSA; format: cell-based; conditions: MRSA clinical isolate; for MIC: 24 h culture, read-out: MIC; for MBC: solid medium 24 h
Description: (§1) The three strains of MRSA, P. aeruginosa, and E. coli used in this experiment were from clinical isolates, which were provided by the People’s Liberation Army 304 Hospital.
(§2) To evaluate the antibacterial activities of newly synthesized N (7) position modified fluoroquinolones, the minimum inhibitory (MIC) and bactericidal (MBC) concentrations of these compounds toward bacteria were measured.

[2] = system: E. coli; assay: MIC and MBC determinations in vitro, E. coli; format: cell-based; conditions: Escherichia coli, E. coli clinical isolate; for MIC: 24 h culture; for MBC: solid medium 24 h
Description: as §1, §2

[3] = system: P. aeruginosa; assay: MIC and MBC determinations in vitro, P. aeruginosa; format: cell-based; conditions: Pseudomonas aeruginosa, P. aeruginosa clinical isolate; for MIC: 24 h culture, read-out: MIC; for MBC: solid medium 24 h, read-out: MBC
Description: as §1, §2

[4] = Staphylococcus aureus, MRSA, 24 h
[5] = Staphylococcus aureus, MRSA, 24 h, read-out: MBC

| MIC [1, 4] [µg/mL] | MIC [2] [µg/mL] | MIC [3] [µg/mL] | melting point [°C] | SMILES | MBC [1, 5] [µg/mL] | MBC [2] [µg/mL] | MBC [3] [µg/mL] | MBC [1] [µg/mL] |
| --- | --- | --- | --- | --- | --- | --- | --- | --- |
| 0.313 (≈ 0.706 µM) | 0.313 (≈ 0.706 µM) | 0.313 (≈ 0.706 µM) |  | COc1c(N2CC3CCCN(C(C)=O)C3C2)c(F)cc2c(=O)c(C(=O)O)cn(C3CC3)c12 (centres unmarked) [Compound 2-f, 7-(1-Acetyloctahydro-6H-pyrrolo[3,4-b]pyridin-6-yl)-1-cyclopropyl-6-fluoro-8-methoxy-4-oxo-1,4-dihydroquinoline-3-carboxylic acid] | 0.625 (≈ 1.41 µM) | 0.625 (≈ 1.41 µM) | 0.625 (≈ 1.41 µM) |  |
| 0.078 (≈ 0.161 µM) | 10 (≈ 20.7 µM) | 0.078 (≈ 0.161 µM) | 167.5 to 168.7 | COc1c(N2CCCC(N(C)C(=O)c3ccco3)C2)c(F)cc2c(=O)c(C(=O)O)cn(C3CC3)c12 (centres unmarked) [Compound 13-e, 1-Cyclopropyl-6-fluoro-8-methoxy-7-(3-(N-methylfuran-2-carboxamido)piperidin-1-yl)-4-oxo-1,4-dihydroquinoline-3-carboxylic acid] | 0.156 (≈ 0.323 µM) | 20 (≈ 41.4 µM) | 0.156 (≈ 0.323 µM) |  |
| 0.313 (≈ 0.645 µM) | 20 (≈ 41.2 µM) | 0.313 (≈ 0.645 µM) | 105.1 to 106.4 | COc1c(N2CCCC(N(C)C(=O)C3CCCC3)C2)c(F)cc2c(=O)c(C(=O)O)cn(C3CC3)c12 (centres unmarked) [Compound 16-e, 1-Cyclopropyl-6-fluoro-8-methoxy-7-(3-(N-methylcyclopentanecarboxamido)piperidin-1-yl)-4-oxo-1,4-dihydroquinoline-3-carboxylic acid] | 0.625 (≈ 1.29 µM) | 40 (≈ 82.4 µM) | 0.625 (≈ 1.29 µM) |  |
| 0.156 (≈ 0.32 µM) | 20 (≈ 41 µM) | 0.313 (≈ 0.642 µM) |  | CCCCCC(=O)N(C)C1CCCN(c2c(F)cc3c(=O)c(C(=O)O)cn(C4CC4)c3c2OC)C1 (centres unmarked) [Compound 6-e, 1-Cyclopropyl-6-fluoro-8-methoxy-7-(3-(N-methylhexanamido)piperidin-1-yl)-4-oxo-1,4-dihydroquinoline-3-carboxylic acid] | 0.625 (≈ 1.28 µM) | 20 (≈ 41 µM) | 0.625 (≈ 1.28 µM) |  |
| 0.313 (≈ 0.624 µM) | > 40 | 0.625 (≈ 1.25 µM) |  | CCCCCCC(=O)N(C)C1CCCN(c2c(F)cc3c(=O)c(C(=O)O)cn(C4CC4)c3c2OC)C1 (centres unmarked) [Compound 7-e, 1-Cyclopropyl-6-fluoro-8-methoxy-7-(3-(N-methylheptanamido)piperidin-1-yl)-4-oxo-1,4-dihydroquinoline-3-carboxylic acid] | 0.625 (≈ 1.25 µM) | > 40 | 1.25 (≈ 2.49 µM) |  |
| 0.078 (≈ 0.193 µM) | 0.625 (≈ 1.55 µM) | 0.313 (≈ 0.776 µM) |  | COc1c(N2CCCC(N(C)C)C2)c(F)cc2c(=O)c(C(=O)O)cn(C3CC3)c12 (centres unmarked) [Compound 21-e, 1-Cyclopropyl-7-(3-(dimethylamino)piperidin-1-yl)-6-fluoro-8-methoxy-4-oxo-1,4-dihydroquinoline-3-carboxylic acid] | 0.31 (≈ 0.768 µM) | 0.625 (≈ 1.55 µM) | 0.313 (≈ 0.776 µM) | 0.313 (≈ 0.776 µM) |
| 0.156 (≈ 0.313 µM) | 0.156 (≈ 0.313 µM) | 0.156 (≈ 0.313 µM) |  | COc1c(N2CCCC(N(C)C(=O)Cn3cncn3)C2)c(F)cc2c(=O)c(C(=O)O)cn(C3CC3)c12 (centres unmarked) [Compound e-1, 1-Cyclopropyl-6-fluoro-8-methoxy-7-(3-(N-methyl-2-(1H-1,2,4-triazol-1-yl)acetamido)piperidin-1-yl)-4-oxo-1,4-dihydroquinoline-3-carboxylic acid] | 0.312 (≈ 0.626 µM) | 0.313 (≈ 0.628 µM) | 0.313 (≈ 0.628 µM) | 0.313 (≈ 0.628 µM) |
| 0.039 (≈ 0.0875 µM) | 5 (≈ 11.2 µM) | 0.078 (≈ 0.175 µM) |  | CCC(=O)N(C)C1CCCN(c2c(F)cc3c(=O)c(C(=O)O)cn(C4CC4)c3c2OC)C1 (centres unmarked) [Compound 3-e, 1-Cyclopropyl-6-fluoro-8-methoxy-7-(3-(N-methylpropionamido)piperidin-1-yl)-4-oxo-1,4-dihydroquinoline-3-carboxylic acid] | 0.078 (≈ 0.175 µM) | 10 (≈ 22.4 µM) | 0.078 (≈ 0.175 µM) |  |
| 1.25 (≈ 2.42 µM) | > 40 | 1.25 (≈ 2.42 µM) | 68.2 to 70 | CCCCCCCC(=O)N(C)C1CCCN(c2c(F)cc3c(=O)c(C(=O)O)cn(C4CC4)c3c2OC)C1 (centres unmarked) [Compound 8-e, 1-Cyclopropyl-6-fluoro-8-methoxy-7-(3-(N-methyloctanamido)piperidin-1-yl)-4-oxo-1,4-dihydroquinoline-3-carboxylic acid] | 5 (≈ 9.7 µM) | > 40 | 5 (≈ 9.7 µM) |  |
| 0.039 (≈ 0.0849 µM) | 5 (≈ 10.9 µM) | 0.078 (≈ 0.17 µM) |  | CCCC(=O)N(C)C1CCCN(c2c(F)cc3c(=O)c(C(=O)O)cn(C4CC4)c3c2OC)C1 (centres unmarked) [Compound 4-e, 1-Cyclopropyl-6-fluoro-8-methoxy-7-(3-(N-methylbutyramido)piperidin-1-yl)-4-oxo-1,4-dihydroquinoline-3-carboxylic acid] | 0.078 (≈ 0.17 µM) | 20 (≈ 43.5 µM) | 0.078 (≈ 0.17 µM) |  |
| 25 (≈ 56 µM) | 25 (≈ 56 µM) | 0.78 (≈ 1.75 µM) |  | COc1c(N2CCCC(N(C)C(=O)CN)C2)c(F)cc2c(=O)c(C(=O)O)cn(C3CC3)c12 (centres unmarked) [Compound 20-e, 7-(3-(2-Amino-N-methylacetamido)piperidin-1-yl)-1-cyclopropyl-6-fluoro-8-methoxy-4-oxo-1,4-dihydroquinoline-3-carboxylic acid] | 50 (≈ 112 µM) | 50 (≈ 112 µM) | 6.25 (≈ 14 µM) |  |
| 1.56 (≈ 3.39 µM) | 12.5 (≈ 27.1 µM) | 0.39 (≈ 0.847 µM) |  | COc1c(N2CCCC(N(C)C(=O)C(C)N)C2)c(F)cc2c(=O)c(C(=O)O)cn(C3CC3)c12 (centres unmarked) [Compound 19-e, 7-(3-(2-Amino-N-methylpropanamido)piperidin-1-yl)-1-cyclopropyl-6-fluoro-8-methoxy-4-oxo-1,4-dihydroquinoline-3-carboxylic acid] | 3.12 (≈ 6.79 µM) | 25 (≈ 54.3 µM) | 1.56 (≈ 3.39 µM) |  |
| 5 (≈ 9.2 µM) | > 40 | 5 (≈ 9.2 µM) | 65.2 to 68.1 | CCCCCCCCCC(=O)N(C)C1CCCN(c2c(F)cc3c(=O)c(C(=O)O)cn(C4CC4)c3c2OC)C1 (centres unmarked) [Compound 10-e, 1-Cyclopropyl-6-fluoro-8-methoxy-7-(3-(N-methyldecanamido)piperidin-1-yl)-4-oxo-1,4-dihydroquinoline-3-carboxylic acid] | 20 (≈ 36.8 µM) | > 40 | 20 (≈ 36.8 µM) |  |
| 0.078 (≈ 0.16 µM) | 20 (≈ 41 µM) | 0.156 (≈ 0.32 µM) | 140.2 to 141.2 | COc1c(N2CCCC(N(C)C(=O)C3CCCO3)C2)c(F)cc2c(=O)c(C(=O)O)cn(C3CC3)c12 (centres unmarked) [Compound 14-e, 1-Cyclopropyl-6-fluoro-8-methoxy-7-(3-(N-methyltetrahydrofuran-2-carboxamido)piperidin-1-yl)-4-oxo-1,4-dihydroquinoline-3-carboxylic acid] | 0.156 (≈ 0.32 µM) | 20 (≈ 41 µM) | 0.313 (≈ 0.642 µM) |  |
| 0.39 (≈ 0.854 µM) | 0.78 (≈ 1.71 µM) | 0.78 (≈ 1.71 µM) | 184.8 to 186.2 | COc1c(N2CCCC(N(C)C(=O)CC#N)C2)c(F)cc2c(=O)c(C(=O)O)cn(C3CC3)c12 (centres unmarked) [Compound 22-e, 7-(3-(2-Cyano-N-methylacetamido)piperidin-1-yl)-1-cyclopropyl-6-fluoro-8-methoxy-4-oxo-1,4-dihydroquinoline-3-carboxylic acid] | 0.78 (≈ 1.71 µM) | 1.56 (≈ 3.42 µM) | 1.56 (≈ 3.42 µM) |  |
| 0.313 (≈ 0.613 µM) | 0.625 (≈ 1.22 µM) | 1.25 (≈ 2.45 µM) |  | COc1c(N2CC3CCCN(C(=O)Cn4cncn4)C3C2)c(F)cc2c(=O)c(C(=O)O)cn(C3CC3)c12 (centres unmarked) [Compound f-1, 7-(1-(2-(1H-1,2,4-Triazol-1-yl)acetyl)octahydro-6H-pyrrolo[3,4-b]pyridin-6-yl)-1-cyclopropyl-6-fluoro-8-methoxy-4-oxo-1,4-dihydroquinoline-3-carboxylic acid] | 2.5 (≈ 4.9 µM) | 2.5 (≈ 4.9 µM) | 2.5 (≈ 4.9 µM) |  |
| 0.078 (≈ 0.165 µM) | 10 (≈ 21.1 µM) | 0.078 (≈ 0.165 µM) |  | CCCCC(=O)N(C)C1CCCN(c2c(F)cc3c(=O)c(C(=O)O)cn(C4CC4)c3c2OC)C1 (centres unmarked) [Compound 5-e, 1-Cyclopropyl-6-fluoro-8-methoxy-7-(3-(N-methylpentanamido)piperidin-1-yl)-4-oxo-1,4-dihydroquinoline-3-carboxylic acid] | 0.156 (≈ 0.329 µM) | 20 (≈ 42.2 µM) | 0.156 (≈ 0.329 µM) |  |
| 0.078 (≈ 0.158 µM) | 10 (≈ 20.2 µM) | 0.078 (≈ 0.158 µM) |  | COc1c(N2CCCC(N(C)C(=O)c3cccnc3)C2)c(F)cc2c(=O)c(C(=O)O)cn(C3CC3)c12 (centres unmarked) [Compound 15-e, 1-Cyclopropyl-6-fluoro-8-methoxy-7-(3-(N-methylnicotinamido)piperidin-1-yl)-4-oxo-1,4-dihydroquinoline-3-carboxylic acid] | 0.156 (≈ 0.315 µM) | 20 (≈ 40.4 µM) | 0.156 (≈ 0.315 µM) |  |
| 0.078 (≈ 0.158 µM) | 20 (≈ 40.5 µM) | 0.156 (≈ 0.316 µM) |  | COc1c(N2CCCC(N(C)C(=O)c3ccccc3)C2)c(F)cc2c(=O)c(C(=O)O)cn(C3CC3)c12 (centres unmarked) [Compound 12-e, 1-Cyclopropyl-6-fluoro-8-methoxy-7-(3-(N-methylbenzamido)piperidin-1-yl)-4-oxo-1,4-dihydroquinoline-3-carboxylic acid] | 0.313 (≈ 0.634 µM) | 20 (≈ 40.5 µM) | 0.313 (≈ 0.634 µM) |  |
| 0.039 (≈ 0.0972 µM) | 0.039 (≈ 0.0972 µM) | 0.039 (≈ 0.0972 µM) |  | COc1c(N2C[C@@H]3CCCN[C@@H]3C2)c(F)cc2c(=O)c(C(=O)O)cn(C3CC3)c12 [Compound 1f, moxifloxacin, reference compound] | 0.039 (≈ 0.0972 µM) | 0.039 (≈ 0.0972 µM) | 0.039 (≈ 0.0972 µM) |  |
